Measurements: patent publication US12408664B2 (priority 2018, dated 2025)
“And” between values parts separate entries of the source, which are not always exact repeats. Identical values can stand only once.

Columns and labels:
[1] = system: R. solani; assay: Growth on PDA with calcium propionate fully integrated into the agarose; type: cell-based, Rhizoctonia solani; details: for Growth, R. solani: single plate
Description: (§1) In contrast to the zone of inhibition assays described in Examples 1-3, for this experiment, PDA with calcium propionate fully integrated into the agarose was prepared. Thus, inoculants were grown on plates in which calcium propionate was incorporated at a uniform concentration throughout the plate, rather than the zones of concentration established by simple diffusion in the zone of inhibition assays. The PDA plates were amended with 5, 7.5, 10, or 12% (w/v) calcium propionate. Growth diameter was recorded for 15 days post inoculation. The data shown in Table 3 represent the results of single plate tests.

[2] = system: G. graminis; assay: Established liquid cultures, two days calcium propionate then washout; type: cell-based, Gaeumannomyces graminis
Description: To further examine the impact of calcium propionate on established liquid cultures, MEB was inoculated by plug transfer and cultures were allowed to grow for one to six days. Following this, calcium propionate was added to active cultures to a final concentration of 1%, 2%, or 5% (w/v); control cultures had no calcium propionate. Calcium propionate was then added to established one to six day old cultures and cultures were allowed to grow in the presence of calcium propionate for two days, after which, calcium propionate was washed out and cultures were returned to MEB only. Growth following calcium propionate washout was recorded over 14 days.

[3] = system: G. graminis; assay: New inoculants in MEB liquid culture amended with calcium propionate; type: cell-based, Gaeumannomyces graminis; details: MEB with 1, 2, 5 and 10% (w/v) calcium propionate; five days
Description: (§2) To examine the effective dose range in liquid culture, malt extract broth (MEB) was prepared and amended with calcium propionate at concentrations of 1, 2, 5 and 10% (w/v). Unamended MEB was used as a control for growth. Each of the four microbes identified in Example 1 was tested twice by inoculating MEB using agarose plugs from luxuriant cultures. Growth was observed over five days. In each microbe examined, visible growth in liquid culture was apparent by day 2 following inoculation with well-established growth by 4 days in the absence of calcium propionate.

[4] = system: dollar spot; assay: Golf Course 2: infected live turfgrass, visual detection of dollar spot; type: in vivo, Scerotinia homoeocarpa; details: 3-4 grams per square meter every 10 days, 5% (w/v) solution sprayed; 10 days following initial application
Description: (§3) Calcium propionate was dissolved in water to form a 5% (w/v) solution. […] The turfgrass was comprised primarily of Agrostis capillaris. The calcium propionate 5% (w/v) solution was sprayed onto the turfgrass at a concentration of 3-4 grams per square meter every 10 days.

[5] = system: R. solani; assay: New inoculants in MEB liquid culture amended with calcium propionate; type: cell-based, Rhizoctonia solani; details: MEB with 1, 2, 5 and 10% (w/v) calcium propionate; five days
Description: as §2

[6] = system: G. graminis; assay: Plug transfer to PDA plates without calcium propionate (fungistatic or fungicidal); type: cell-based, Gaeumannomyces graminis
[7] = system: R. solani; assay: Zone of inhibition assay on PDA plates; type: cell-based, Rhizoctonia solani
Description: To test the efficacy of calcium propionate (CaP) against the four microbes listed above, zone of inhibition assays were performed. Wells were bored in potato dextrose agarose (PDA) plates then amended with […] calcium propionate at concentrations of 0.1%, 0.2%, 0.3%, 0.4%, and 0.5% (w/v). Control plates were amended with […] dH2O. Plates were inoculated using plugs from active cultures. Growth patterns were observed over seven days. Representative results with M. poae are shown at three days following inoculation (FIG. 1A) and seven days following inoculation (FIG. 1B).
The zone of inhibition assays described in Example 1 were performed using calcium propionate doses of 0.5%, 1%, 2%, 3%, and 4% (w/v). Growth diameter was recorded at 2, 5, and 7 days post inoculation. The data shown in Table 1 represent the average±standard deviation (SD) of two replicate plates for each strain tested.
Zone of inhibition assays using PDA plates amended with 5-12% (w/v) calcium propionate were performed as described above. As a control, plates were amended with a composition comprising propiconazole, a commonly used fungicidal treatment for microbe infection of turfgrass, sold under the trademark Banner MaxxII®. Growth diameter was recorded for 13 days post inoculation. The data shown in Table 2 represent the average±standard deviation (SD) of three replicate plates for each strain tested. Inoculants of S. homoeocarpa, M. poae, and R. solani generally grow to luxuriant culture, covering the entire surface of the plate (8.5 cm growth) in 7 days.

[8] = system: Fusarium oxysporum; assay: Golf Course 2: infected live turfgrass, visual detection of Fusarium oxysporum infection; type: in vivo; details: 3-4 grams per square meter every 10 days, 5% (w/v) solution sprayed; 10 days following initial application
Description: as §3

[9] = system: M. poae; type: cell-based, Magnaporthe poae; details: MEB with 1%, 2%, 5% or 10% (w/v) calcium propionate; five days
[10] = system: M. poae; type: cell-based, Magnaporthe poae
[11] = system: G. graminis; assay: Growth on PDA with calcium propionate fully integrated into the agarose; type: cell-based, Gaeumannomyces graminis
Description: as §1

[12] = system: M. poae; type: cell-based, Magnaporthe poae; details: MEB with 1, 2, 5 and 10% (w/v) calcium propionate; five days
[13] = plugs initially grown on 5, 7.5, 10 or 12% (w/v) calcium propionate, observed 14 days

Question: Which results are given for `CCC(=O)[O-].CCC(=O)[O-].[Ca+2]` [calcium propionate]?
Answer: Growth, R. solani ([1]; PDA with 5% (w/v) calcium propionate, day 4): 1.3 cm; Growth, R. solani ([1]; PDA with 5% (w/v) calcium propionate, day 5): 1.7 cm; Growth, R. solani ([1]; PDA with 5% (w/v) calcium propionate, day 8): 2.5 cm; Growth, R. solani ([1]; PDA with 5% (w/v) calcium propionate, day 11): 3.2 cm; Growth, R. solani ([1]; PDA with 5% (w/v) calcium propionate, day 15): 4.6 cm; Growth, R. solani ([1]; PDA with 7.5% (w/v) calcium propionate, day 4): 0 cm; Growth, R. solani ([1]; PDA with 7.5% (w/v) calcium propionate, day 5): 1 cm; Growth, R. solani ([1]; PDA with 7.5% (w/v) calcium propionate, day 8): 1.2 cm; Growth, R. solani ([1]; PDA with 7.5% (w/v) calcium propionate, day 11): 1.2 cm; Growth, R. solani ([1]; PDA with 7.5% (w/v) calcium propionate, day 15): 2.0 cm and 2 cm; Growth, R. solani ([1]; PDA with 10% (w/v) calcium propionate, day 4): 0 cm; Growth, R. solani ([1]; PDA with 10% (w/v) calcium propionate, day 5): 0 cm; Growth, R. solani ([1]; PDA with 10% (w/v) calcium propionate, day 8): 0 cm; Growth, R. solani ([1]; PDA with 10% (w/v) calcium propionate, day 11): 0 cm; Growth, R. solani ([1]; PDA with 10% (w/v) calcium propionate, day 15): 0 cm; growth inhibition, R. solani ([1]; PDA with 10% and 12% (w/v) calcium propionate, 15 days): fully inhibited growth; Growth, R. solani ([1]; PDA with 12% (w/v) calcium propionate, day 4): 0 cm; Growth, R. solani ([1]; PDA with 12% (w/v) calcium propionate, day 5): 0 cm; Growth, R. solani ([1]; PDA with 12% (w/v) calcium propionate, day 8): 0 cm; Growth, R. solani ([1]; PDA with 12% (w/v) calcium propionate, day 11): 0 cm; Growth, R. solani ([1]; PDA with 12% (w/v) calcium propionate, day 15): 0 cm; growth while calcium propionate was present, G. graminis ([2]; 1%, 2% or 5% (w/v), established one to six day old cultures, two days): growth was inhibited; growth three days following removal of calcium propionate, G. graminis ([2]; all concentrations tested (1-5% w/v), data not shown): continued growth inhibition; growth up to two weeks following calcium propionate removal, G. graminis ([2]; concentrations as low as 1% (w/v)): no growth was observed; growth in liquid culture, G. graminis [3]: no growth was observed; visual detection of dollar spot infection [4]: could no longer be visually detected; growth in liquid culture, R. solani [5]: no growth was observed; fungistatic or fungicidal effect, G. graminis ([6]; 5% (w/v) calcium propionate): fungicidal effect; growth on unamended PDA after plug transfer, G. graminis [6, 13]: No growth was seen; Growth, R. solani ([7]; 5-12% (w/v) calcium propionate, day 2, average ± SD of three plates): 2.6 ± 0.3 cm; Growth, R. solani ([7]; 5-12% (w/v) calcium propionate, day 3, average ± SD of three plates): 4.3 ± 0.3 cm; Growth, R. solani ([7]; 5-12% (w/v) calcium propionate, day 6, average ± SD of three plates): 8.5 ± 0 cm; Growth, R. solani ([7]; 5-12% (w/v) calcium propionate, day 7, average ± SD of three plates): 8.5 ± 0 cm; Growth, R. solani ([7]; 5-12% (w/v) calcium propionate, day 10, average ± SD of three plates): 8.5 ± 0 cm; Growth, R. solani ([7]; 5-12% (w/v) calcium propionate, day 13, average ± SD of three plates): 8.5 ± 0 cm; inhibition of R. solani growth ([7]; calcium propionate concentrations up to 12% (w/v)): no inhibition; growth inhibition, R. solani ([7]; wells 0.1-0.5% (w/v) calcium propionate, observed over seven days): no growth inhibition was observed; growth inhibition, R. solani ([7]; wells 0.5-4% (w/v) calcium propionate): uninhibited; Growth, R. solani ([7]; wells 0.5-4% (w/v) calcium propionate, day 2, average ± SD of two plates): 3.3 ± 0.4 cm; Growth, R. solani ([7]; wells 0.5-4% (w/v) calcium propionate, day 5, average ± SD of two plates): 8.5 ± 0 cm; Growth, R. solani ([7]; wells 0.5-4% (w/v) calcium propionate, day 7, average ± SD of two plates): 8.5 ± 0 cm; visual detection of Fusarium oxysporum infection [8]: could no longer be visually detected; growth of disrupted culture, M. poae [9]: No growth was observed; fungistatic or fungicidal effect, M. poae ([10]; 5% (w/v) calcium propionate): fungicidal effect; growth on unamended PDA after plug transfer, M. poae [10, 13]: No growth was seen; Growth, G. graminis ([11]; PDA with 5% (w/v) calcium propionate, day 4, single plate): 0 cm; Growth, G. graminis ([11]; PDA with 5% (w/v) calcium propionate, day 5, single plate): 0 cm; Growth, G. graminis ([11]; PDA with 5% (w/v) calcium propionate, day 8, single plate): 0 cm; Growth, G. graminis ([11]; PDA with 5% (w/v) calcium propionate, day 11, single plate): 0 cm; Growth, G. graminis ([11]; PDA with 5% (w/v) calcium propionate, day 15, single plate): 0 cm; Growth, G. graminis ([11]; PDA with 7.5% (w/v) calcium propionate, day 4, single plate): 0 cm; Growth, G. graminis ([11]; PDA with 7.5% (w/v) calcium propionate, day 5, single plate): 0 cm; Growth, G. graminis ([11]; PDA with 7.5% (w/v) calcium propionate, day 8, single plate): 0 cm; Growth, G. graminis ([11]; PDA with 7.5% (w/v) calcium propionate, day 11, single plate): 0 cm; Growth, G. graminis ([11]; PDA with 7.5% (w/v) calcium propionate, day 15, single plate): 0 cm; Growth, G. graminis ([11]; PDA with 10% (w/v) calcium propionate, day 4, single plate): 0 cm; Growth, G. graminis ([11]; PDA with 10% (w/v) calcium propionate, day 5, single plate): 0 cm; Growth, G. graminis ([11]; PDA with 10% (w/v) calcium propionate, day 8, single plate): 0 cm; Growth, G. graminis ([11]; PDA with 10% (w/v) calcium propionate, day 11, single plate): 0 cm; Growth, G. graminis ([11]; PDA with 10% (w/v) calcium propionate, day 15, single plate): 0 cm; Growth, G. graminis ([11]; PDA with 12% (w/v) calcium propionate, day 4, single plate): 0 cm; Growth, G. graminis ([11]; PDA with 12% (w/v) calcium propionate, day 5, single plate): 0 cm; Growth, G. graminis ([11]; PDA with 12% (w/v) calcium propionate, day 8, single plate): 0 cm; Growth, G. graminis ([11]; PDA with 12% (w/v) calcium propionate, day 11, single plate): 0 cm; Growth, G. graminis ([11]; PDA with 12% (w/v) calcium propionate, day 15, single plate): 0 cm; Growth, G. graminis ([11]; any of the concentrations tested (5, 7.5, 10, 12% w/v), 15 days): no growth; growth in liquid culture, M. poae [12]: no growth was observed
